Test results from PubChem BioAssay (NCI).
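Five concentrations, 48 hours, 96-well plates. GI50 marks 50% less growth. The concentration for full growth arrest is given as TGI.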

Columns and labels:
Assay in all cases: NCI anticancer screen, dose series, 48 h
[1] = system: 786-0 renal
[2] = system: A498 renal
[3] = system: A549 NSCLC
[4] = system: ACHN renal
[5] = system: BT-549 breast
[6] = system: CAKI-1 renal
[7] = system: CCRF-CEM leukemia
[8] = system: COLO 205 colon
[9] = system: DU-145 prostate
[10] = system: HCC-2998 colon
[11] = system: HCT-116 colon
[12] = system: HCT-15 colon
[13] = system: HL-60(TB) leukemia
[14] = system: HOP-62 NSCLC
[15] = system: HOP-92 NSCLC
[16] = system: HT29 colon
[17] = system: IGROV1 ovarian
[18] = system: KM12 colon
[19] = system: LOX IMVI melanoma
[20] = system: M14 melanoma
[21] = system: MALME-3M melanoma
[22] = system: MCF7 breast
[23] = system: MDA-MB-231 breast
[24] = system: MDA-MB-435
[25] = system: MOLT-4 leukemia
[26] = system: NCI-H226 lung
[27] = system: NCI-H23 lung
[28] = system: NCI-H460 lung
[29] = system: NCI-H522 lung
[30] = system: NCI/ADR-RES ovarian
[31] = system: OVCAR-3 ovarian
[32] = system: OVCAR-4 ovarian
[33] = system: OVCAR-5 ovarian
[34] = system: OVCAR-8 ovarian
[35] = system: PC-3 prostate
[36] = system: RPMI-8226 leukemia
[37] = system: SF-268 CNS
[38] = system: SF-295 CNS
[39] = system: SF-539 CNS
[40] = system: SK-MEL-2 melanoma
[41] = system: SK-MEL-28 melanoma
[42] = system: SK-MEL-5 melanoma
[43] = system: SK-OV-3 ovarian
[44] = system: SN12C renal
[45] = system: SNB-19 CNS
[46] = system: SNB-75 CNS
[47] = system: SW-620 colon
[48] = system: T-47D breast
[49] = system: TK-10 renal
[50] = system: U251 CNS
[51] = system: UACC-257 melanoma
[52] = system: UACC-62 melanoma
[53] = system: UO-31 renal

## Cc1ccc(Nc2cc(C)nc(NCCCNc3ccnc4cc(Cl)ccc34)n2)cc1
[1]
  GI50: 1.73 µM
  TGI: 3.31 µM
[2]
  GI50: 1.06 µM
  TGI: 2.4 µM
[3]
  GI50: 1.65 µM
  TGI: 3.41 µM
[4]
  GI50: 1.54 µM
  TGI: 2.91 µM
[5]
  GI50: 1.63 µM
  TGI: 3.4 µM
[6]
  GI50: 1.46 µM
  TGI: 2.85 µM
[7]
  GI50: 0.945 µM
  TGI: 3.79 µM
[8]
  GI50: 1.36 µM
  TGI: 2.77 µM
[9]
  GI50: 1.97 µM
  TGI: 4.14 µM
[10]
  GI50: 1.38 µM
  TGI: 2.8 µM
[11]
  GI50: 1.09 µM
  TGI: 2.81 µM
[12]
  GI50: 0.767 µM
  TGI: 2.21 µM
[13]
  GI50: 1.84 µM
  TGI: 4.81 µM
[14]
  GI50: 1.38 µM
  TGI: 2.78 µM
[15]
  GI50: 1.16 µM
  TGI: 2.89 µM
[16]
  GI50: 0.481 µM
  TGI: 2.06 µM
[17]
  GI50: 1.82 µM
  TGI: 3.98 µM
[18]
  GI50: 1.69 µM
  TGI: 3.26 µM
[19]
  GI50: 1.38 µM
  TGI: 2.83 µM
[20]
  GI50: 1.56 µM
  TGI: 3.33 µM
[21]
  GI50: 1.82 µM
  TGI: 3.74 µM
[22]
  GI50: 1.16 µM
  TGI: 2.72 µM
[23]
  GI50: 1.38 µM
  TGI: 2.87 µM
[24]
  GI50: 1.41 µM
  TGI: 2.7 µM
[25]
  GI50: 2.01 µM
  TGI: 6.67 µM
[26]
  GI50: 2.14 µM
  TGI: 5.91 µM
[27]
  GI50: 1.78 µM
  TGI: 3.63 µM
[28]
  GI50: 1.57 µM
  TGI: 3.23 µM
[29]
  GI50: 1.77 µM
  TGI: 3.37 µM
[30]
  GI50: 1.73 µM
  TGI: 3.54 µM
[31]
  GI50: 1.7 µM
  TGI: 3.5 µM
[32]
  GI50: 1.24 µM
  TGI: 2.82 µM
[33]
  GI50: 1.85 µM
  TGI: 4.62 µM
[34]
  GI50: 1.67 µM
  TGI: 3.25 µM
[35]
  GI50: 1.57 µM
  TGI: 3.79 µM
[36]
  GI50: 1.5 µM
  TGI: 3.95 µM
[37]
  GI50: 1.52 µM
  TGI: 3.14 µM
[38]
  GI50: 1.51 µM
  TGI: 2.92 µM
[39]
  GI50: 1.59 µM
  TGI: 3.05 µM
[40]
  GI50: 1.83 µM
  TGI: 3.34 µM
[41]
  GI50: 1.62 µM
  TGI: 3.06 µM
[42]
  GI50: 1.4 µM
  TGI: 2.71 µM
[43]
  GI50: 1.57 µM
  TGI: 3.35 µM
[44]
  GI50: 1.49 µM
  TGI: 3.11 µM
[45]
  GI50: 1.75 µM
  TGI: 3.84 µM
[46]
  GI50: 1.3 µM
  TGI: 2.56 µM
[47]
  GI50: 1.31 µM
  TGI: 2.83 µM
[48]
  GI50: 1.75 µM
  TGI: 4.14 µM
[49]
  GI50: 1.81 µM
  TGI: 3.29 µM
[50]
  GI50: 1.32 µM
  TGI: 2.67 µM
[51]
  GI50: 1.74 µM
  TGI: 3.22 µM
[52]
  GI50: 1.68 µM
  TGI: 3.19 µM
[53]
  GI50: 1.43 µM
  TGI: 2.87 µM
